According to article PMC11278233, “The Composition of Triterpene Glycosides in the Sea Cucumber Psolus peronii: Anticancer Activity of the Glycosides against Three Human Breast Cancer Cell Lines and Quantitative Structure–Activity Relationships (QSAR)” (Marine Drugs, 2024):
Like-named read-outs stand apart in the source and are kept apart here.

Experiments:
[1] = test system: triple-negative human breast cancer cell line MDA-MB-231; experiment: cells; assay type: cell-based; conditions: for Selectivity Index MDA-MB-231: ratio of IC50 for healthy (MCF-10A) and cancer cells
[2] = test system: human breast cancer cell line MCF-7; experiment: cells; assay type: cell-based; conditions: for Selectivity Index MCF-7: ratio of IC50 for healthy (MCF-10A) and cancer cells
[3] = test system: human breast cancer cell line T-47D; experiment: cells; assay type: cell-based; conditions: for Selectivity Index T-47D: ratio of IC50 for healthy (MCF-10A) and cancer cells
human erythrocytes = experiment: Hemolytic activity; assay type: cell-based; conditions: for IC50: Erythrocyte, 1 h at 37 °C, lysis of 50% of erythrocytes
Method: A total of 450 g of human blood (B(III) Rh+) was used to obtain erythrocytes by centrifuging it three times for 5 min with phosphate-buffered saline (PBS) (pH 7.4) at 4 °C on the centrifuge LABOFUGE 400R (Heraeus, Hanau, Germany). Ice-cold PBS (pH 7.4) was used for resuspension of the erythrocyte residue to a final optical density of 1.5 at 700 nm, which was kept on ice. Then, 20 µL of the tested compound solutions was added to 180 µL of the erythrocyte suspension in V-bottom 96-well plates and exposed for 1 h at 37 °C. The layers were separated by centrifugation at 900 g for 10 min on the laboratory centrifuge LMC-3000 (Biosan, Riga, Latvia). A total of 100 µL of the supernatant was carefully decanted and transferred into a new flat plate. The values of erythrocyte lysis were measured on a microplate photometer Multiskan FC (Thermo Fisher Scientific, Waltham, MA, USA) at λ = 570 nm as the hemoglobin concentration in the supernatant. […] All the experiments were carried out in triple repetitions; p ≤ 0.05.

in vitro = assay type: cell-based, human; conditions: human
MDA-MB-231 cells [4] = experiment: Wound healing (scratch) assay, MDA-MB-231; assay type: cell-based, human; conditions: 2 μM, within 12 h, control 99.83 ± 0.08%
Method: (§1) To analyze the influence of the tested compounds on tumor cell migration, MCF-7 and MDA-MB-231 (5 × 10^5) cells attached to the plate’s plastic bottom were separated using a silicone insert from special migration plates (Culture-insert 2Well 24, ibiTreat). When the insert was removed, a gap of […] (according to the manufacturer’s data) between the cells was left. After 24 h, the cells were washed twice with PBS to remove cell debris and floating cells, treated with 1 and 2 μM of psolusosides A (2) and L (6) and placed in the real-time live cell imaging system Juli Stage (NanoEntek, Seoul, South Korea). Cells treated with the culture medium only were used as the control. The cell migration was analyzed in real time (15 min for each cycle). For the MDA-MB-231 cells, observations were carried out for 12 h (until complete healing of the wound area in the control); for MCF-7 cells, this time was 48 h. The results were processed using the program Juli^TM Stat (NanoEntek, South Korea).

MCF-7 cells [5] = experiment: Colonogenic (colony formation) assay, MCF-7; assay type: cell-based; conditions: Homo sapiens, MCF7, 336 h, 14 days
Method: (§2) The cancer cells (MDA-MB-231, MCF-7 and T-47D lines) were cultured on 6-well plates at a density of 1 × 10^3 per well in control media (MEM media, 10% FBS, 10,000 U/mL of penicillin and […] of streptomycin) or in media supplemented with different concentrations of the glycosides. The cells were incubated for 14 days at 37 °C in a 5% CO2 humidified incubator. Then, the colonies were fixed with methanol (25 min), stained with a 0.5% solution of crystal violet (25 min), washed with H2O and dried in air. Counting of the grown colonies was carried out using a BIO-PRINT-Cx4 Edge-Fixed Pad-Container (Vilber, Collegien, France) device and using the software Bio-Vision SOFTWARE User and service manual-v18.01 (Vilber, Collegien, France). The results are presented as % of colony inhibition in relation to the control.

[6] = test system: non-transformed epithelial cells of the mammary gland MCF-10A; experiment: in vitro; assay type: cell-based, human
MCF-7 cells [7] = experiment: Wound healing (scratch) assay, MCF-7; assay type: cell-based, human; conditions: 1 and 2 μM, within 48 h, control migrated by 84.60 ± 2.12%
Method: as §1

MDA-MB-231 cells [8] = experiment: Colonogenic (colony formation) assay, MDA-MB-231; assay type: cell-based; conditions: Homo sapiens, 336 h, 14 days, read-out: inhibition of the growth of colonies
Method: as §2

[9] = Homo sapiens, MDA-MB-231, 24 h, read-out: Cytotoxicity, IC50 µM MDA-MD-231
[10] = Homo sapiens, MCF7, 24 h, read-out: Cytotoxicity, IC50 µM MCF-7
[11] = Homo sapiens, T47D, 24 h, read-out: Cytotoxicity, IC50 µM T-47D

For `C=C(C)CCC[C@]1(C)OC(=O)[C@]23CC[C@@H]4C(=CC[C@H]5C(C)(C)[C@@H](O[C@@H]6OC[C@@H](O[C@@H]7O[C@H](CO)[C@@H](O)[C@H](O)[C@H]7OS(=O)(=O)[O-])[C@H](O)[C@H]6O[C@@H]6O[C@H](CO)[C@@H](O[C@@H]7O[C@H](COS(=O)(=O)[O-])[C@@H](O)[C@H](O)[C@H]7O)[C@H](O)[C@H]6O)CC[C@]45C)[C@]2(C)CC(=O)[C@@H]31.[Na+].[Na+]` [peronioside A (1), 3β-O-{6-O-sodium-sulfate-β-D-glucopyranosyl-(1→4)-β-D-glucopyranosyl-(1→2)-[2-O-sodium-sulfate-β-D-glucopyranosyl-(1→4)]-β-D-xylopyranosyl}-16-oxoholosta-7,25-diene], the IC50 [1, 9] was > 50 µM, the IC50 [2, 10] was > 50 µM and the IC50 [3, 11] was > 50 µM. For the same compound, the “hemolytic activity (result in words)” value (human erythrocytes) was “moderate hemolytic activity”, the IC50 (human erythrocytes) was 30.8 ± 1.01 µM and the IC50 at 24 h (in vitro) was > 50 µM.

With `C=C(C)CCC[C@]1(C)OC(=O)[C@]23CC=C4[C@@H](CC[C@H]5C(C)(C)[C@@H](O[C@@H]6OC[C@@H](O)[C@H](O)[C@H]6O[C@@H]6O[C@H](C)[C@@H](O[C@@H]7O[C@H](COS(=O)(=O)[O-])[C@@H](O)[C@H](O[C@@H]8O[C@H](COS(=O)(=O)[O-])[C@@H](O)[C@H](OC)[C@H]8O)[C@H]7O)[C@H](O)[C@H]6O)CC[C@]45C)[C@]2(C)CC(=O)[C@@H]31.[Na+].[Na+]` [psolusoside A (2), psolusoside A] the IC50 [1, 9] was 6.09 ± 0.87 µM, the IC50 ([1]; Homo sapiens, MDA-MB-231, MTT assay, 48 h incubation, read-out: IC50 against MDA-MB-231 cells (antiproliferative effect)) was 3.87 ± 0.38 µM and the IC50 ([1]; Homo sapiens, MDA-MB-231, MTT assay, 72 h incubation, read-out: IC50 against MDA-MB-231 cells (antiproliferative effect)) was 3.27 ± 0.27 µM. For the same compound, the “Selectivity Index MDA-MB-231” value ([1]; 24 h of exposition) was 8.21, the “Selectivity Index MDA-MB-231” value ([1]; 48 h of exposition) was 2.18 and the “Selectivity Index MDA-MB-231” value ([1]; 72 h of exposition) was 2.09. The IC50 [2, 10] was 11.2 ± 0.4 µM, the “Selectivity Index MCF-7” value ([2]; 24 h of exposition) was 4.47 and the “Selectivity Index MCF-7” value ([2]; 48 h of exposition) was 1.84. The “Selectivity Index MCF-7” value ([2]; 72 h of exposition) was 0.59, the “overgrowth of the wound area (migration)” value (MDA-MB-231 cells [4]) was 30.01 ± 0.16% and the IC50 [3, 11] was 9.52 ± 0.13 µM. For the same compound, the “Selectivity Index T-47D” value ([3]; 24 h of exposition) was 5.25, the “Selectivity Index T-47D” value ([3]; 48 h of exposition) was 0.86 and the “Selectivity Index T-47D” value ([3]; 72 h of exposition) was 0.76. For the same compound, the IC50 (human erythrocytes) was 1.05 ± 0.12 µM, the inhibition at 1 µM (MCF-7 cells [5]; 1 μM) was 33.8 ± 2.64% and the inhibition at 2 µM (MCF-7 cells [5]; 2 μM) was 54.9 ± 1.92%. For the same compound, the inhibition at 5 µM (MCF-7 cells [5]; 5 μM) was 96.88 ± 0.96%, the IC50 at 24 h (in vitro) was > 50 µM and the “cytotoxicity to non-transformed MCF-10A cells (result in words)” value [6] was “not cytotoxic”. For the same compound, the “reduction of the migration of cells to the scratch area” value (MCF-7 cells [7]) was 33–42%, the inhibition at 0.5 µM (MDA-MB-231 cells [8]; 0.5 μM) was 40.6 ± 5.62% and the inhibition at 1 µM (MDA-MB-231 cells [8]; 1 μM) was 88.76 ± 0.81%.

For `C=C(C)CCC[C@](C)(OC(C)=O)[C@H]1[C@@H]2C[C@@]3(C)C4=CC[C@H]5C(C)(C)[C@@H](O[C@@H]6OC[C@@H](O[C@@H]7O[C@H](CO)[C@@H](O)[C@H](O)[C@H]7OS(=O)(=O)[O-])[C@H](O)[C@H]6O[C@@H]6O[C@H](CO)[C@@H](O[C@@H]7O[C@H](COS(=O)(=O)[O-])[C@@H](O)[C@H](O)[C@H]7O)[C@H](O)[C@H]6O)CC[C@]5(C)C4CC[C@]13C(=O)O2.[Na+].[Na+]` (stereo partly drawn) [psolusoside B (3), psolusoside B], the IC50 [1, 9] was > 50 µM, the IC50 [2, 10] was > 50 µM and the IC50 [3, 11] was > 50 µM. The “hemolytic activity (result in words)” value (human erythrocytes) was “almost not active”, the IC50 (human erythrocytes) was 74.6 ± 1.21 µM and the IC50 at 24 h (in vitro) was > 50 µM.

With `C=C(C)CCC[C@]1(C)OC(=O)[C@]23CC=C4[C@@H](CC[C@H]5C(C)(C)[C@@H](O[C@@H]6OC[C@@H](O)[C@H](O)[C@H]6O[C@@H]6O[C@H](CO)[C@@H](O[C@@H]7O[C@H](COS(=O)(=O)O)[C@@H](O)[C@H](O[C@@H]8O[C@H](COS(=O)(=O)O)[C@@H](O)[C@H](OC)[C@H]8O)[C@H]7O)[C@H](O)[C@H]6O)CC[C@]45C)[C@]2(C)CC(=O)[C@@H]31` [psolusoside G (4), psolusoside G] the IC50 [1, 9] was 11 ± 0.36 µM, the IC50 [2, 10] was 11.4 ± 0.36 µM and the IC50 [3, 11] was 16 ± 1.17 µM. For the same compound, the IC50 (human erythrocytes) was 2.7 ± 0.09 µM and the IC50 at 24 h (in vitro) was > 50 µM.

For `C=C(C)CCC[C@]1(C)OC(=O)[C@]23CCC4C(=CC[C@H]5C(C)(C)[C@@H](O[C@@H]6OC[C@@H](O[C@@H]7O[C@H](COS(=O)(=O)O)[C@@H](O)[C@H](O)[C@H]7O)[C@H](O)[C@H]6O[C@@H]6OC[C@@H](O[C@@H]7O[C@H](COS(=O)(=O)O)[C@@H](O)[C@H](O)[C@H]7O)[C@H](O)[C@H]6O)CC[C@]45C)[C@]2(C)C[C@H](OC(C)=O)[C@@H]31` (stereo partly drawn) [psolusoside I (5), psolusoside I], the IC50 [1, 9] was 33.1 ± 0.85 µM, the IC50 [2, 10] was > 50 µM and the IC50 [3, 11] was 19.6 ± 0.61 µM. For the same compound, the IC50 (human erythrocytes) was 8.49 ± 0.49 µM and the IC50 at 24 h (in vitro) was > 50 µM.

In the case of `C=C(C)CCC[C@]1(C)OC(=O)[C@]23CC=C4[C@@H](CC[C@H]5C(C)(C)[C@@H](O[C@@H]6OC[C@@H](O[C@@H]7O[C@H](COS(=O)(=O)O)[C@@H](O)[C@H](O)[C@H]7O)[C@H](O)[C@H]6O[C@@H]6O[C@H](CO)[C@@H](O[C@@H]7O[C@H](COS(=O)(=O)O)[C@@H](O)[C@H](O[C@@H]8O[C@H](COS(=O)(=O)O)[C@@H](O)[C@H](OC)[C@H]8O)[C@H]7O)[C@H](O)[C@H]6O)CC[C@]45C)[C@]2(C)CC(=O)[C@@H]31` [psolusoside N (7), psolusoside N], the IC50 [1] is reported as 39.3 ± 2.89 µM, the IC50 [2] is reported as > 50 µM and the IC50 [3] is reported as > 50 µM. The IC50 [6] was > 50 µM.

With `C=C(C)CCC[C@]1(C)OC(=O)[C@]23CC=C4[C@@H](CC[C@H]5C(C)(C)[C@@H](O[C@@H]6OC[C@@H](O[C@@H]7O[C@H](COS(=O)(=O)O)[C@@H](OS(=O)(=O)O)[C@H](O)[C@H]7O)[C@H](O)[C@H]6O[C@@H]6O[C@H](C)[C@@H](O[C@@H]7O[C@H](COS(=O)(=O)O)[C@@H](O)[C@H](O[C@@H]8O[C@H](COS(=O)(=O)O)[C@@H](O)[C@H](OC)[C@H]8O)[C@H]7O)[C@H](O)[C@H]6O)CC[C@]45C)[C@]2(C)CC(=O)[C@@H]31` [psolusoside P (8), psolusoside P] the IC50 [1] was 33.3 ± 1.31 µM, the IC50 [2] was > 50 µM and the IC50 [3] was 37.1 ± 0.83 µM. For the same compound, the IC50 [6] was > 50 µM.
